Assay results taken from patent US20220378706A1, “PHARMACEUTICAL COMPOSITION COMPRISING PDE9 INHIBITOR” (Eisai R&D Management Co., Ltd., priority 2017, published 2022).
Where two headings read alike, the source gives them in different places.

What was measured:
[1] = Single dose clinical study Parts A and C: urine Compound A pharmacokinetics; format: in vivo, human; settings: for CL renal: human, po
Protocol: Urine Compound A concentrations were analyzed predose and up to 96 hours postdose.
(§1) Plasma, urine and CSF concentrations of Compound A were measured using validated liquid chromatography mass spectrometry/mass spectrometry (LC MS/MS) assay methods. CSF concentrations of cGMP were measured using a validated LC-MS/MS assay method.
The following PK parameters were calculated for Compound A: […]

[2] = High precision QTcF analysis using Holter ECG recording; format: in vivo, human; settings: at the Cmax at the highest doses of 800 to 1200 mg, healthy subjects
Protocol: In addition, high precision QTcF analysis using Holter ECG recording was conducted in Parts A, C, and D during Day −1 and Day 1, to allow more rigorous assessments of possible changes in QTcF intervals. A central ECG laboratory was used to extract ECG recordings from the Holter device.

[3] = Single dose clinical study Part B: CSF Compound A pharmacokinetics; format: in vivo; settings: human
Protocol: After the Screening Period, subjects returned to the clinic on […] for Baseline procedures. […] Serial CSF sampling via the lumbar catheter commenced on Day 1, after an overnight fast. CSF samples were collected on Day 1 over a period of 3 hours predose. Subjects were then administered study drug, and serial CSF sampling for 30 hours postdose was performed to determine CSF cGMP and CSF Compound A concentrations. Blood samples for plasma Compound A PK were collected at the same time points as CSF sampling. Safety evaluations were also performed.
Concentrations of Compound A in CSF were analyzed in serial CSF samples collected at predose and postdose at 1, 2, 3, 4, 5, 6, 8, 10, 12, 14, 16, 18, 24, and 30 hours.
as §1
The following PK parameters were derived by noncompartmental analysis using CSF Compound A concentrations: […]

[4] = tested on: scopolamine-induced memory impairment in rats; assay: Scopolamine-induced memory impairment in rat novel object recognition test; format: in vivo; settings: scopolamine 0.7 mg/kg i.p., mean ± SEM
Description: (Effects of Compound a Monomaleate Salt on Scopolamine-Induced Memory Impairment in Rat Novel Object Recognition Test)
The effects of orally administered Compound A monomaleate salt on scopolamine-induced memory impairment in a novel object recognition test in rats was examined.
Six-week-old male Long-Evans rats (Institute for Animal Reproduction) were used in this study. Before test day, rats were placed in each experimental apparatus once a day, on two consecutive days to habituate rats to the test chamber. […]
Following a 2-hour […] interval, a retention trial (T2) was conducted. […] Animal performance in T1 and T2 was recorded with a digital video camera, and the amount of time spent exploring each object was measured by manual stopwatches. […]
In novel object recognition test, the following novel object exploration ratio in T2 is considered as amnesic indexes reflecting the discrimination between the familiar and novel objects. These indexes are calculated according to the following formulas: […]
Data are expressed as the mean±SEM. The difference between the non-scopolamine treated control and scopolamine treated control groups were analyzed using unpaired t test. The effects of Compound A monomaleate salt on novel object exploration ratio in T2 was analyzed by one-way analysis of variance (ANOVA) followed by the Dunnett multiple comparison test. […]

[5] = Elderly subjects Part C, single oral 100 mg
[6] = healthy adults Part A, single oral 10 mg
[7] = healthy adults Part A, single oral 25 mg
[8] = healthy adults Part A, single oral 50 mg
[9] = healthy adults Part A, single oral 100 mg
[10] = healthy adults Part A, single oral 200 mg
[11] = healthy adults Part A, single oral 400 mg
[12] = healthy adults Part A, single oral 800 mg
[13] = healthy adults Part A, single oral 1200 mg

For `COc1ncc(C)c(-c2ccc3c(c2)[nH]c(=O)c2cnn([C@H]4CCOC4)c23)c1C` [Compound A, (S)-7-(2-methoxy-3,5-dimethylpyridin-4-yl)-1-(tetrahydrofuran-3-yl)-1H-pyrazolo[4,3-c]quin olin-4(5H)-one], the “Ae(0-96 h) GM” value [1, 5] was 0.228 mg, the “Fe(0-96 h) GM” value [1, 5] was 0.228% and the “Ae(0-96 h) GM” value [1, 6] was 0.0218 mg. The “Fe(0-96 h) GM” value [1, 6] was 0.218%, the “Ae(0-96 h) GM” value [1, 7] was 0.0476 mg and the “Fe(0-96 h) GM” value [1, 7] was 0.190%. The “Ae(0-96 h) GM” value [1, 8] was 0.104 mg, the “Fe(0-96 h) GM” value [1, 8] was 0.208% and the “Ae(0-96 h) GM” value [1, 9] was 0.295 mg. The “Fe(0-96 h) GM” value [1, 9] was 0.295%, the “Ae(0-96 h) GM” value [1, 10] was 0.177 mg and the “Fe(0-96 h) GM” value [1, 10] was 0.0885%. For the same molecule, the “Ae(0-96 h) GM” value [1, 11] was 0.615 mg, the “Fe(0-96 h) GM” value [1, 11] was 0.154% and the “Ae(0-96 h) GM” value [1, 12] was 0.762 mg. For the same molecule, the “Fe(0-96 h) GM” value [1, 12] was 0.0953%, the “Ae(0-96 h) GM” value [1, 13] was 1.18 mg and the “Fe(0-96 h) GM” value [1, 13] was 0.0979%. For the same molecule, the CL renal ([1]; 10 mg, healthy adults Part A, single oral 10 mg) was 0.228 mL/min, the CL renal ([1]; 25 mg, healthy adults Part A, single oral 25 mg) was 0.202 mL/min and the CL renal ([1]; 50 mg, healthy adults Part A, single oral 50 mg) was 0.268 mL/min. It also gave a CL renal ([1]; 100 mg, Elderly subjects Part C, single oral 100 mg) of 0.22 mL/min, a CL renal ([1]; 100 mg, healthy adults Part A, single oral 100 mg) of 0.37 mL/min and a CL renal ([1]; 200 mg, healthy adults Part A, single oral 200 mg) of 0.17 mL/min. For the same molecule, the CL renal ([1]; 400 mg, healthy adults Part A, single oral 400 mg) was 0.337 mL/min, the CL renal ([1]; 800 mg, healthy adults Part A, single oral 800 mg) was 0.212 mL/min and the CL renal ([1]; 1200 mg, healthy adults Part A, single oral 1200 mg) was 0.287 mL/min. For the same molecule, the “upper 90% CI of the ΔΔQTcF” value [2] was “less than 10 ms”, the Kp ([3]; CSF and plasma, oral, 50 to 400 mg, read-out: GM ratios of CSF AUC(0-t) to plasma AUC(0-t) across doses) was 0.0241 to 0.028 and the Kp ([3]; CSF and plasma, oral, 50 to 400 mg, read-out: GM ratios of CSF Cmax to plasma Cmax across doses) was 0.02 to 0.0277. The Kp ([3]; CSF and plasma, po, 50 mg, healthy adults Part B, single oral 50 mg, fasted, read-out: CSF: plasma Cmax ratio (expressed as %) GM (% CV)) was 0.02, the Kp ([3]; CSF and plasma, po, 75 mg, healthy adults Part B, single oral 75 mg, fasted, from AUC (0-t) or AUC (0-30 h), read-out: CSF: plasma AUC ratio (expressed as %) GM (% CV)) was 0.0264 and the Kp ([3]; CSF and plasma, po, 75 mg, healthy adults Part B, single oral 75 mg, fasted, read-out: CSF: plasma Cmax ratio (expressed as %) GM (% CV)) was 0.0264. It also gave a Kp ([3]; CSF and plasma, po, 100 mg, healthy adults Part B, single oral 100 mg, fasted, from AUC (0-t) or AUC (0-30 h), read-out: CSF: plasma AUC ratio (expressed as %) GM (% CV)) of 0.0266, a Kp ([3]; CSF and plasma, po, 100 mg, healthy adults Part B, single oral 100 mg, fasted, read-out: CSF: plasma Cmax ratio (expressed as %) GM (% CV)) of 0.0194 and a Kp ([3]; CSF and plasma, po, 200 mg, healthy adults Part B, single oral 200 mg, fasted, from AUC (0-t) or AUC (0-30 h), read-out: CSF: plasma AUC ratio (expressed as %) GM (% CV)) of 0.0238. For the same molecule, the Kp ([3]; CSF and plasma, po, 200 mg, healthy adults Part B, single oral 200 mg, fasted, read-out: CSF: plasma Cmax ratio (expressed as %) GM (% CV)) was 0.0214, the Kp ([3]; CSF and plasma, po, 400 mg, healthy adults Part B, single oral 400 mg, fasted, from AUC (0-t) or AUC (0-30 h), read-out: CSF: plasma AUC ratio (expressed as %) GM (% CV)) was 0.0279 and the Kp ([3]; CSF and plasma, po, 400 mg, healthy adults Part B, single oral 400 mg, fasted, read-out: CSF: plasma Cmax ratio (expressed as %) GM (% CV)) was 0.0203. The Kp ([3]; CSF, oral, 50 to 400 mg, read-out: mean CSF:plasma ratios (expressed as percentages) of Cmax or AUC(0-t)) was 0.02 to 0.03, the Tmax ([3]; CSF, oral, single doses (50 to 400 mg except 50 mg; b332: 100 to 400 mg), read-out: median CSF tmax across doses) was 4.37 to 6.87 h and the Tmax ([3]; CSF, healthy adults Part B, single oral 50 mg, fasted, read-out: CSF tmax Median) was 11.9 h. It also gave a Tmax ([3]; CSF, healthy adults Part B, single oral 75 mg, fasted, read-out: CSF tmax Median) of 5.37 h, a Tmax ([3]; CSF, healthy adults Part B, single oral 100 mg, fasted, read-out: CSF tmax Median) of 6.87 h and a Tmax ([3]; CSF, healthy adults Part B, single oral 200 mg, fasted, read-out: CSF tmax Median) of 4.37 h. For the same molecule, the Tmax ([3]; CSF, healthy adults Part B, single oral 400 mg, fasted, read-out: CSF tmax Median) was 5.37 h, the “Novel object exploration ratio in T2” value ([4]; 3.3 mg/kg oral) was 68.5 ± 2.0 % and the “Novel object exploration ratio in T2” value ([4]; 10 mg/kg oral) was 68.5 ± 1.6 %.
